Assay results from ChEMBL document CHEMBL2203098 (J Med Chem, 2012).
pIC50: −log10 of the molar value. Calls of active or inactive are those of the source. The rule behind the calls is not given here.

Experiments:
HT-22 [1] = test: Neurotoxicity in mouse hippocampal HT22 cells assessed as cell viability at 1 uM after 24 hrs by MTT assay; type: toxicity, cell-based; settings: ht-22, 24 h
HT-22 [2] = test: Neurotoxicity in mouse hippocampal HT22 cells assessed as cell viability at 10 uM after 24 hrs by MTT assay; type: toxicity, cell-based; settings: ht-22, 24 h
HT-22 [3] = test: Neurotoxicity in mouse hippocampal HT22 cells assessed as cell viability at 25 uM after 24 hrs by MTT assay; type: toxicity, cell-based; settings: ht-22, 24 h
HT-22 [4] = test: Neuroprotective activity against glutamate induced oxidative stress in mouse hippocampal HT22 cells assessed as cell viability at 1 uM after 24 hrs by MTT assay; type: functional, cell-based
HT-22 [5] = test: Neuroprotective activity against glutamate induced oxidative stress in mouse hippocampal HT22 cells assessed as cell viability at 10 uM after 24 hrs by MTT assay; type: functional, cell-based
HT-22 [6] = test: Neuroprotective activity against glutamate induced oxidative stress in mouse hippocampal HT22 cells assessed as cell viability at 25 uM after 24 hrs by MTT assay; type: functional, cell-based
HT-22 [7] = test: Neuroprotective activity against glutamate induced oxidative stress in mouse hippocampal HT22 cells assessed as cell viability at 50 uM after 24 hrs by MTT assay; type: functional, cell-based
[8] = Hepatotoxicity against human HSC cells assessed as reduction in cell number up to 200 uM after 24 hrs using crystal violet staining by photometry; type: toxicity, cell-based
[9] = Hepatotoxicity against human HSC cells assessed as reduction in cell number at 10 to 75 uM after 24 hrs by fluorescence microscopic analysis; type: toxicity, cell-based
[10] = Hepatotoxicity against human HSC cells assessed as mitochondrial swelling at 50 to 75 uM after 24 hrs by fluorescence microscopic analysis; type: toxicity, cell-based
Rattus norvegicus [11] = test: Hepatoprotective activity in Wistar rat assessed as decrease in tissue content of TBARS at 2 uM/100 gram of body weight, ip after 24 hrs; type: functional; set-up: scale not given: the % may be the effect or the level left
Acetylcholinesterase = Acetylcholinesterase (Electrophorus electricus, UniProt O42275)
Sequence of Acetylcholinesterase (O42275 whole entry): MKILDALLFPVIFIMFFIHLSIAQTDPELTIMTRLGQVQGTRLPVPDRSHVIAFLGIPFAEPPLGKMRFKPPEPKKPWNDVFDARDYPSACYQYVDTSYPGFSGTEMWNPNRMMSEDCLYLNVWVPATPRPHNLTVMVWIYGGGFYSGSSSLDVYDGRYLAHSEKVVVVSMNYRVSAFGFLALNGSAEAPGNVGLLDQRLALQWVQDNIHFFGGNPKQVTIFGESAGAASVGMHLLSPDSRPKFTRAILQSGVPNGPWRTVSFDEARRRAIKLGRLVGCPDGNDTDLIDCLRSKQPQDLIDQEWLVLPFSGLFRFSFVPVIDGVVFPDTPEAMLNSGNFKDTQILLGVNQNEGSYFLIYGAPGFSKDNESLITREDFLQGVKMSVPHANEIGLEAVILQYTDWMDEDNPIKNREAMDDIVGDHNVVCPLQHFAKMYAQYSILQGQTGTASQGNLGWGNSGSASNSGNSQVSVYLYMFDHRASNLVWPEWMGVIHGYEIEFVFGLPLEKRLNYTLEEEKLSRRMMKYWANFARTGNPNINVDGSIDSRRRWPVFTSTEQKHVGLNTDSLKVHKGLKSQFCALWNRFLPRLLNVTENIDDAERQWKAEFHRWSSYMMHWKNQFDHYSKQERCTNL
Description: Inhibition of electric eel AChE by colorimetric Ellman assay

Cholinesterase = Cholinesterase (Equus caballus, UniProt P81908)
Sequence of Cholinesterase (P81908 whole entry): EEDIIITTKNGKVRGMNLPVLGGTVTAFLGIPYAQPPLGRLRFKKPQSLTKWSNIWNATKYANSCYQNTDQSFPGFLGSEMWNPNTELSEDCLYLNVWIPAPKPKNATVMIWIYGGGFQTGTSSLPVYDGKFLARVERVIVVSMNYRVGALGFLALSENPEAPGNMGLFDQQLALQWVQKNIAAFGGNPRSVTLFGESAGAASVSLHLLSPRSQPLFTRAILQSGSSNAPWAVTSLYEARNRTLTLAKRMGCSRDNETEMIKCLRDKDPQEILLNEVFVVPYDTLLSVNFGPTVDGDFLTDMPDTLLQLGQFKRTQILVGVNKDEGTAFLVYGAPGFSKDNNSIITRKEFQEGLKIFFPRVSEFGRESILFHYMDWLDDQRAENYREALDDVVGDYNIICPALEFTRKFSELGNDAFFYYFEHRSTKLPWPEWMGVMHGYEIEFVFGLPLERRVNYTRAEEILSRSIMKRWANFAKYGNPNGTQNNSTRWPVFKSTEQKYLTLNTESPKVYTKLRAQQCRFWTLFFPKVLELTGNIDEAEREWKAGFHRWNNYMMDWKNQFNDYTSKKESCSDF

[12] = molecular target: Acetylcholinesterase (Electrophorus electricus) (UniProt O42275); test: Inhibition of electric eel AChE at 100 uM by colorimetric Ellman assay
Sequence of Acetylcholinesterase (Electrophorus electricus) (O42275 24-633 limits assumed): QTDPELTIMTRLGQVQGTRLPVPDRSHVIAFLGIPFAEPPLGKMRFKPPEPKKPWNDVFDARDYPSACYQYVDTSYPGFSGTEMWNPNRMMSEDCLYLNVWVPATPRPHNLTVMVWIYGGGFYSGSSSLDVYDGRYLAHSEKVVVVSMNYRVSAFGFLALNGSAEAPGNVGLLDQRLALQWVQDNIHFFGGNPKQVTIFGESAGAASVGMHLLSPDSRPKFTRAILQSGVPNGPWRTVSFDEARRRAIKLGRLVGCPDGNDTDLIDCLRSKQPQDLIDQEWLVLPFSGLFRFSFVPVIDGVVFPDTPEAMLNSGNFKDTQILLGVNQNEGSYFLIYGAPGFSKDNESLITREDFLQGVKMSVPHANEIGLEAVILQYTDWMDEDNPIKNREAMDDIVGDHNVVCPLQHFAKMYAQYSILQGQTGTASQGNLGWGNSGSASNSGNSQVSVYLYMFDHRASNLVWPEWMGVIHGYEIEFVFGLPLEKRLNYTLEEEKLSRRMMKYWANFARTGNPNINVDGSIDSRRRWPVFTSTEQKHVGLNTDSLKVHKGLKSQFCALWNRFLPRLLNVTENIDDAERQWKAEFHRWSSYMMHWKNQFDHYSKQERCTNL

[13] = molecular target: Cholinesterase (Equus caballus) (UniProt P81908); test: Inhibition of […] at 100 uM by colorimetric Ellman assay
Sequence of Cholinesterase (Equus caballus) (P81908 whole entry): as the sequence (P81908 whole entry) above

Rattus norvegicus [14] = test: Hepatoprotective against tacrine-induced toxicity in Wistar rat liver assessed as increase in ratio of reduced/oxidised glutathione at 2 uM/100 gram of body weight, ip after 24 hrs; type: functional, organism-based
Rattus norvegicus [15] = test: Hepatoprotective against tacrine-induced toxicity in Wistar rat liver assessed as increase in ratio of reduced/oxidised glutathione at 6 uM/100 gram of body weight, ip after 24 hrs; type: functional, organism-based
Rattus norvegicus [16] = test: Hepatoprotective activity against tacrine-induced toxicity in Wistar rat liver assessed as decrease in tissue content of TBARS at 2 uM/100 gram of body weight, ip after 24 hrs; type: functional; set-up: scale not given: the % may be the effect or the level left

| SMILES | Activity (HT-22 [1]) | Activity (HT-22 [2]) | Activity (HT-22 [3]) | Activity (HT-22 [4]) | Activity (HT-22 [5]) | Activity (HT-22 [6]) | Activity (HT-22 [7]) | Activity [8] | Activity [9] | Activity [10] | Activity (Rattus norvegicus [11]) [%] | pIC50 (Acetylcholinesterase) | pIC50 (Cholinesterase) | inhibition [12] [%] | inhibition [13] [%] | Activity (Rattus norvegicus [14]) | Activity (Rattus norvegicus [15]) | Activity (Rattus norvegicus [16]) [%] |
| --- | --- | --- | --- | --- | --- | --- | --- | --- | --- | --- | --- | --- | --- | --- | --- | --- | --- | --- |
| COc1cc([C@@H]2Oc3cc([C@H]4Oc5cc(O)cc(O)c5C(=O)[C@@H]4O)ccc3O[C@H]2COC(=O)CCC(=O)NCCCCCCNc2c3c(nc4ccccc24)CCCC3)ccc1O | Non-toxic | Non-toxic | Non-toxic | Active | Active | Active | Active | Non-toxic | Non-toxic | Non-toxic | 25 | 7.27 | 7.30 |  |  |  |  |  |
| O=C(O)CCC(=O)NCCCCCCNc1c2c(nc3ccccc13)CCCC2 |  |  |  |  |  |  |  |  |  |  |  | 6.99 | 6.44 |  |  |  |  |  |
| NCCCCCCNc1c2c(nc3ccccc13)CCCC2 |  |  |  |  |  |  |  |  |  |  |  | 7.41 | 8.70 |  |  |  |  |  |
| COc1cc(C2Oc3cc([C@H]4Oc5cc(O)cc(O)c5C(=O)[C@@H]4O)ccc3OC2CO)ccc1O (stereo partly specified) [SILIBININ] |  |  |  | inactive | inactive | inactive | inactive |  |  |  |  |  |  | 5.5 | 3.1 | Active | Active | 15 |
